Test results reported in patent US20240139211A1, “METHODS AND COMPOSITIONS FOR TREATING AMYOTROPHIC LATERAL SCLEROSIS” (Amylyx Pharmaceuticals, Inc., priority 2022, published 2024).

Columns and labels:
[1] = Chemical stability in HBSSg_7.4 and HBSS_8.5; type: physicochemical
Procedure: At pre-determined time points, an equal volume of acetonitrile with internal standard was added to each vial, and the mixture was placed at 4° C. until the end of the assay. The peak areas of the test article and IS of each sample were determined by LC-MS/MS, and the ratios of the peak areas (analyte:IS) were calculated.

[2] = tested on: P-gp and BCRP; test: P-gp and BCRP substrate assessment in C2BBe1 monolayers; details: Caco-2
Procedure: The P-gp and BCRP substrate assessment was conducted in C2BBe1 cell monolayers. […] LY was co-dosed with each dosing solution at a nominal concentration of 200 μM.
The cell culture medium was aspirated, and the cell monolayers were rinsed once with HBSSg_7.4. […] For receiver samples, aliquots (300 μL) were taken at pre-selected time points. […] For donor samples, aliquots (50 μL) were taken at pre-selected time points without replacement.

[3] = molecular target: T1, OCT1 (Homo sapiens, UniProt O15245); test: Inhibitor of OCT1, probe substrate uptake; details: two concentrations per test article
T1 sequence (O15245 1-554): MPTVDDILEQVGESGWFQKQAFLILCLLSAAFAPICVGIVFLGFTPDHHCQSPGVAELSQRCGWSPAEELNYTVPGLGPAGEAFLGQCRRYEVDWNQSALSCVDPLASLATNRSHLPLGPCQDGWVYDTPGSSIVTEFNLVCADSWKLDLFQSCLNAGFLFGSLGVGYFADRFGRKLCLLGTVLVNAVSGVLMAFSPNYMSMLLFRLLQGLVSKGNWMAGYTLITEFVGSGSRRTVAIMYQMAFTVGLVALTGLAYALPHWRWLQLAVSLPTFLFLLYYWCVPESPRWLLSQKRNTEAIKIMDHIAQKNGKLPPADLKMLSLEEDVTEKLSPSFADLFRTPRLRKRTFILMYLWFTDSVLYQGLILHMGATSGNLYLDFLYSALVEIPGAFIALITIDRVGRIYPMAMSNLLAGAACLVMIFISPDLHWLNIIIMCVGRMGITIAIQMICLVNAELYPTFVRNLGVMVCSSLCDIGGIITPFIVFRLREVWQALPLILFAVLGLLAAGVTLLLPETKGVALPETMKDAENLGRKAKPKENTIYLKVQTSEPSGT

[4] = molecular target: T2, CYPs in human liver microsomes (HLM) (Homo sapiens, UniProt P05177); test: CYP reaction phenotyping in HLM with chemical inhibitors (% remaining); details: +NADPH +furafylline (CYP1A2), pre-incubated
T2 sequence (P05177 1-516): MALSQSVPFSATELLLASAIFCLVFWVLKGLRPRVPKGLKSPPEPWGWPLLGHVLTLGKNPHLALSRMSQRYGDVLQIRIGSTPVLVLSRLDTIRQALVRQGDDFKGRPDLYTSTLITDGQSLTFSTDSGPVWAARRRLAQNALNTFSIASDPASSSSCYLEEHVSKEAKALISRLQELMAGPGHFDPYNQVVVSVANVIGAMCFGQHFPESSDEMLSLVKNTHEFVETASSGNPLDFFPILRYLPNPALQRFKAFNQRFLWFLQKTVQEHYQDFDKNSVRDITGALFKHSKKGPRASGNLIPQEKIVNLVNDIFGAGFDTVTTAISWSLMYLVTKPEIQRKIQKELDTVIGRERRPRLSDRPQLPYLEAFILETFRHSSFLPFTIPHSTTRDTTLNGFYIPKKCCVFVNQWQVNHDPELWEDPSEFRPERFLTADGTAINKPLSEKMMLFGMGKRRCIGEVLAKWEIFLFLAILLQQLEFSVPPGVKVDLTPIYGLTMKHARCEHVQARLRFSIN

[5] = molecular target: CYPs in human liver microsomes (HLM) (Homo sapiens, UniProt P10635); test: as above; details: +NADPH +quinidine (CYP2D6)
[6] = molecular target: CYPs in human liver microsomes (HLM) (Homo sapiens, UniProt P11712); test: as above; details: +NADPH +sulfaphenazole (CYP2C9)
[7] = molecular target: CYPs in human liver microsomes (HLM) (Homo sapiens, UniProt P33261); test: as above; details: +NADPH +N3B (CYP2C19)
[8] = tested on: CYPs in human liver microsomes (HLM); test: as above

CYPs in human liver microsomes (HLM) (Homo sapiens, UniProt P11712), sequence (P11712 whole entry): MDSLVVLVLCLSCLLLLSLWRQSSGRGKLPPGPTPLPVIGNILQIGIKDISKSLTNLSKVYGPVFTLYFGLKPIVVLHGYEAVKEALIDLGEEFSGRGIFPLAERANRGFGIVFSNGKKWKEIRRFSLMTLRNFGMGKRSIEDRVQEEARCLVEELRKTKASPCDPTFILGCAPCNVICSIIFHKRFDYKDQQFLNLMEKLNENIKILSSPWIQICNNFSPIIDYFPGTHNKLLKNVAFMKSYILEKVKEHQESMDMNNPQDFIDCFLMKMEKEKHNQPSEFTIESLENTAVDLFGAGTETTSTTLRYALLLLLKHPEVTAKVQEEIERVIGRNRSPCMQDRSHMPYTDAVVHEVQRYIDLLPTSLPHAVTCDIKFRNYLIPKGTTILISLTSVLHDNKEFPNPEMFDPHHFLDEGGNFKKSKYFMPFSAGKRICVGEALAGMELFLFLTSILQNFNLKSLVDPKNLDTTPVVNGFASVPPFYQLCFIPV
CYPs in human liver microsomes (HLM) (Homo sapiens, UniProt P33261), sequence (P33261 whole entry): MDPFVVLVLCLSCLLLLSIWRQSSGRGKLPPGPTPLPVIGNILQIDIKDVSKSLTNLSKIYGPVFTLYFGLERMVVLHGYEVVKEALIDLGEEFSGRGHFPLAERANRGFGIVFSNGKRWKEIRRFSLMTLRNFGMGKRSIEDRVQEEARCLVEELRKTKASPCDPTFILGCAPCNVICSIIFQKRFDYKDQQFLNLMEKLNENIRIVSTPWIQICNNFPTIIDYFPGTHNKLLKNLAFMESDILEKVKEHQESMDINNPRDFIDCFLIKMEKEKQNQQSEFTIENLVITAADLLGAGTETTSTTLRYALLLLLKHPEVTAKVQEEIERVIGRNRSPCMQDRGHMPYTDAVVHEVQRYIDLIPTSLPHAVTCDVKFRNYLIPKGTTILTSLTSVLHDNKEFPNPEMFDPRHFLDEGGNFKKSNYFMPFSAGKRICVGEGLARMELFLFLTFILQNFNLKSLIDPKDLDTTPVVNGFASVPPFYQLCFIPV
CYPs in human liver microsomes (HLM) (Homo sapiens, UniProt P10635), sequence (P10635 whole entry): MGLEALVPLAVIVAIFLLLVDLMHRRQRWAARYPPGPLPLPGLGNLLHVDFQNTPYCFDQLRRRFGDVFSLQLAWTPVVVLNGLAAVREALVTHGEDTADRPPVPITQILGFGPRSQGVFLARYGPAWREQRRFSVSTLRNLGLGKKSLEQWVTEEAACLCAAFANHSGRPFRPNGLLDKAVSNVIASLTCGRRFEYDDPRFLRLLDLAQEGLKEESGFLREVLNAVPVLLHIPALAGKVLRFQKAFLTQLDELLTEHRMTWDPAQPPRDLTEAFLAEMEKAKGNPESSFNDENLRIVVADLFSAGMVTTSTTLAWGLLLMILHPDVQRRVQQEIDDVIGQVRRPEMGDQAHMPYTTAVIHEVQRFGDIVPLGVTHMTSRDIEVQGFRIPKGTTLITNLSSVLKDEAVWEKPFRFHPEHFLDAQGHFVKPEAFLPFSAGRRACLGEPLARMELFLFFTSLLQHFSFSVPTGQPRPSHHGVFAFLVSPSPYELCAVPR

O=C(O)CCCc1ccccc1 [PB, sodium phenylbutyrate]
Chemical stability in the tested matrices ([1]; 0.5 μM, 37° C., HBSSg_7.4 and HBSS_8.5): appeared to be stable | Percent of the 0-minute value ([1]; HBSSg_7.4, 0 minutes): 100% | Percent of the 0-minute value ([1]; HBSSg_7.4, 120 minutes): 99.3% | Percent of the 0-minute value ([1]; HBSSg_7.4, Overnight (~1020-[…])): 105% | Percent of the 0-minute value ([1]; HBSSg_8.5, 0 minutes): 100% | Percent of the 0-minute value ([1]; HBSSg_8.5, 120 minutes): 79.4% | Percent of the 0-minute value ([1]; HBSSg_8.5, Overnight (~1020-[…])): 98.6% | P-gp or BCRP substrate [2]: neither TUDCA nor PB is P-gp or BCRP substrate | Inhibition of OCT1 [3]: did not inhibit | Inhibitor of OCT1 [3]: No | % remaining of TA in HLM ([4]; 5 min): 116% | % remaining of TA in HLM ([4]; 10 min): 131% | % remaining of TA in HLM ([4]; 20 min): 125% | % remaining of TA in HLM ([4]; 30 min): 127% | % remaining of TA in HLM ([4]; 60 min): 128% | % remaining of TA in HLM ([5]; 20 min): 97.5% | % remaining of TA in HLM ([5]; 60 min): 98.8% | % remaining of TA in HLM ([6]; 5 min): 103% | % remaining of TA in HLM ([6]; 20 min): 98.5% | % remaining of TA in HLM ([6]; 30 min): 99.6% | % remaining of TA in HLM ([6]; 60 min): 97.6% | % remaining of TA in HLM ([7]; 5 min): 101% | % remaining of TA in HLM ([7]; 20 min): 101% | % remaining of TA in HLM ([7]; 30 min): 101% | % remaining of TA in HLM ([7]; 60 min): 101% | Metabolism by the major CYPs in HLM [8]: neither PB nor TUDCA is metabolized | % remaining of TA in HLM ([8]; +NADPH +ketoconazole (CYP3A), 60 min): 90.6% | % remaining of TA in HLM ([8]; Maximum Metabolism-1: +NADPH −inhibitor, pre-incubated, 10 min): 118% | % remaining of TA in HLM ([8]; Maximum Metabolism-1: +NADPH −inhibitor, pre-incubated, 20 min): 113% | % remaining of TA in HLM ([8]; Maximum Metabolism-1: +NADPH −inhibitor, pre-incubated, 30 min): 110% | % remaining of TA in HLM ([8]; Negative Control-1: −NADPH −inhibitor, pre-incubated, 5 min): 109% | % remaining of TA in HLM ([8]; Negative Control-1: −NADPH −inhibitor, pre-incubated, 10 min): 114% | % remaining of TA in HLM ([8]; Negative Control-1: −NADPH −inhibitor, pre-incubated, 20 min): 113% | % remaining of TA in HLM ([8]; Negative Control-1: −NADPH −inhibitor, pre-incubated, 30 min): 112% | % remaining of TA in HLM ([8]; Negative Control-1: −NADPH −inhibitor, pre-incubated, 60 min): 115%
